Experiments:
[1] = buffer
Method: (§1) Half-lives of imine hydrolysis are determined by measuring the decrease of the concentration of the imine and/or the increase of the concentration of the hydrolysis products e.g. by fluorescence methods, HPLC, infrared spectroscopy and/or NMR spectroscopy.
(§2) For example, in the case of compounds comprising above groups Ar and the fluorescent dye AMC (cf. FIG. 3), half-lives of imine hydrolysis are determined by measuring the increase in fluorescence that corresponds to the release of AMC from the model compounds.
(§3) • 200 μL solution per well; • Wavelength: λex=390 nm, λem=460 nm; • Temperature: 37° C.

[2] = Determination of half-lives for the imine hydrolysis in model compounds (AMC release, fluorescence)
Method: as §1, §2, §3

Compound | t1/2 pH 5.0 (half-life of imine hydrolysis) ([1]; pH 5) | t1/2 pH 7.4 (half-life of imine hydrolysis) ([1]; pH 7.4) | half-life ([2]; acetate buffer, pH 5) | half-life ([2]; phosphate buffer, pH 7.4)
4-(Perfluorobenzylideneamino)benzyl 4-methylcoumarin-7-ylcarbamate [Compound 6] | 173 min | 365 h | – | –
Cc1cc(=O)oc2cc(NC(=O)OCc3ccc(N=Cc4ccccc4)cc3)ccc12 [Compound 4, 4-(Benzylideneamino)benzyl 4-methylcoumarin-7-ylcarbamate] | – | – | 0.567 h | 8 h
Cc1cc(=O)oc2cc(NC(=O)OCc3ccc(N=Cc4c(F)c(F)cc(F)c4F)cc3)ccc12 [Compound 5, 4-(2,3,5,6-Tetrafluorobenzylideneamino)benzyl 4-methylcoumarin-7-ylcarbamate] | – | – | 0.567 h | 89 h

Reference: patent US8609860B2, “Acid-labile trigger units” (KTB Tumorforschungsgesellschaft mbH, priority 2009, dated 2013)
